The text below walks through data of ChEMBL document CHEMBL3132787, “Polyhydroxylated pyrrolidine and 2-oxapyrrolizidine as glycosidase inhibitors” (Medchemcomm, 2013).

One test has as its system Helix pomatia. Nature of the test: Inhibition of Helix pomatia beta-mannosidase using p-nitrophenyl glycoside as substrate assessed as residual activity at 1 mM after 25 mins by spectrophotometer analysis.
A further test concerns Canavalia ensiformis. Nature of the test: Inhibition of jack bean alpha-mannosidase using p-nitrophenyl glycoside as substrate assessed as residual activity at 1 mM after 25 mins by spectrophotometer analysis.
For test [1], the system named is Geobacillus stearothermophilus. As to the kind of experiment: Inhibition of Bacillus stearothermophilus alpha-glucosidase using p-nitrophenyl glycoside as substrate assessed as residual activity at 1 mM after 25 mins by spectrophotometer analysis.
In a further test the test system is Prunus dulcis. Nature of the test: Inhibition of sweet almond beta-glucosidase using p-nitrophenyl glycoside as substrate assessed as residual activity at 1 mM after 25 mins by spectrophotometer analysis.
Test [2] concerns the target Beta-galactosidase (Escherichia coli) (UniProt Q8VNN2). Nature of the test: Inhibition of Escherichia coli beta-galactosidase using p-nitrophenyl glycoside as substrate assessed as residual activity at 1 mM after 25 mins by spectrophotometer analysis.
Test [3] deals with Alpha-galactosidase (Coffea arabica) (UniProt Q42656). Nature of the test: Inhibition of green coffee bean alpha-galactosidase using p-nitrophenyl glycoside as substrate assessed as residual activity at 1 mM after 25 mins by spectrophotometer analysis.
Test [4] can be described thus: Competitive inhibition of sweet almond beta-glucosidase using p-nitrophenyl glycoside as substrate by Lineweaver-Burk plot analysis. Set-up: species or system Prunus dulcis.
In a further test the target is Alpha-galactosidase (Coffea arabica, UniProt Q42656). Nature of the test: Competitive inhibition of green coffee bean alpha-galactosidase using p-nitrophenyl glycoside as substrate by Lineweaver-Burk plot analysis.
Sequence of Alpha-galactosidase (Q42656 whole entry): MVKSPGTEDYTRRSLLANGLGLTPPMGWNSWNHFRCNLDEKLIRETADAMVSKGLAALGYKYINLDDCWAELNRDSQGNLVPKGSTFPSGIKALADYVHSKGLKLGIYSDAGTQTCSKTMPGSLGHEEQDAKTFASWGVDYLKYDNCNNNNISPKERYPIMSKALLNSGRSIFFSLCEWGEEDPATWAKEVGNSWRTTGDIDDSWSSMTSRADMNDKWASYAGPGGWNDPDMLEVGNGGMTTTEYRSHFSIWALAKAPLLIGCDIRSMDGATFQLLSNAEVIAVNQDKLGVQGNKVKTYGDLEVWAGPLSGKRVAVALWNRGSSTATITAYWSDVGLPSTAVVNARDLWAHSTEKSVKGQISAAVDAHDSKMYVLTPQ

Sequence of Beta-galactosidase (Escherichia coli) (Q8VNN2 whole entry, looked up): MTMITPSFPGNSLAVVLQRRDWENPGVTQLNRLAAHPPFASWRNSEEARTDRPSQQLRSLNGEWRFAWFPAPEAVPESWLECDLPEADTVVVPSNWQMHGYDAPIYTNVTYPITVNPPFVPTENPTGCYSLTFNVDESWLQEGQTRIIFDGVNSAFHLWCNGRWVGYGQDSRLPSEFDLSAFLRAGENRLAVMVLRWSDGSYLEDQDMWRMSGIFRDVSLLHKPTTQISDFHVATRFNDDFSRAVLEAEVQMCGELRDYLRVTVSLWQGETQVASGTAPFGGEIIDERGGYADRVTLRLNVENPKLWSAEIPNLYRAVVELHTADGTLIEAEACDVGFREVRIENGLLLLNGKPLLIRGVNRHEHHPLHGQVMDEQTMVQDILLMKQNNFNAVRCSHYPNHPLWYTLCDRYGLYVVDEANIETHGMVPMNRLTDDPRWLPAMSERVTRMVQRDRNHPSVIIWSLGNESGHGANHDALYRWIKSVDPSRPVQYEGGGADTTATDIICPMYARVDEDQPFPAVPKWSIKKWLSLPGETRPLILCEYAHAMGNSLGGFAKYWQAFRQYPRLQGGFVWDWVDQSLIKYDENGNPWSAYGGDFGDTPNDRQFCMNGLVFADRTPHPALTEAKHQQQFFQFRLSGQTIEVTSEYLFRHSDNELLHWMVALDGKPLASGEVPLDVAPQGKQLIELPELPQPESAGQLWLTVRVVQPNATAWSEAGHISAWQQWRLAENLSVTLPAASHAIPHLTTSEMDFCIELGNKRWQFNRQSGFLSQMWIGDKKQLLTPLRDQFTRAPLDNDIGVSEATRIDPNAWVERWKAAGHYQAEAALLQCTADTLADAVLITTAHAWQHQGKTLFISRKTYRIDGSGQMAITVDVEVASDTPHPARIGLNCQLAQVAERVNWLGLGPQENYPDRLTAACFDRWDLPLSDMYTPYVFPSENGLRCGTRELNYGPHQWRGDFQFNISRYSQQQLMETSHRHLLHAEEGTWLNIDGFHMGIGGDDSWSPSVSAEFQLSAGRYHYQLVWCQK
Sequence of Alpha-galactosidase (Coffea arabica) (Q42656 16-378 limits assumed): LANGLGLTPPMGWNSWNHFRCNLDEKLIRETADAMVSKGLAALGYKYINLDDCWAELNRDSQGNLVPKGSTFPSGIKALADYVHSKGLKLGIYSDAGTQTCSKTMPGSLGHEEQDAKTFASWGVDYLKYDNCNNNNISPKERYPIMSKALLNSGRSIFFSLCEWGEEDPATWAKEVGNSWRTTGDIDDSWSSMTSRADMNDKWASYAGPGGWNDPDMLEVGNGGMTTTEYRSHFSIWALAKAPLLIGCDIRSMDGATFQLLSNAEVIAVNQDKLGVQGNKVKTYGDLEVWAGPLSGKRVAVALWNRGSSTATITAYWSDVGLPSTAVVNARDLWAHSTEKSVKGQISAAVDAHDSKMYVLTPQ

Consider `O=P(O)(O)OC[C@@H]1C[C@H](O)[C@@H](CO)N1`, for which the Activity stood at 100% in the test on Helix pomatia; 76.8% in the test with Canavalia ensiformis; 97% in test [1]; 96.1% in the test on Prunus dulcis; 114% in test [2]; 91.9% in test [3].

As to `OC[C@@H]1C[C@H](O)[C@@H](CO)N1`, in test [4], the Ki amounted to 29.2 µM. For the same compound, the Activity with Helix pomatia was 97%; in the test with Canavalia ensiformis it was 102%; in test [1], 12.8%; in the test on Prunus dulcis, 1.7%; in test [2], 53.5%; in test [3], 50.4%.

Consider `O=C(O)[C@@H]1C[C@H](O)[C@@H](CO)N1`, for which the Activity worked out at 99.3% in the test with Helix pomatia; 82% in the test with Canavalia ensiformis; 110% in test [1]; 115% in the test with Prunus dulcis; 90.7% in test [2]; 95.2% in test [3].

For the compound `O=C1OC[C@@H]2C[C@H](O)[C@@H](CO)N12`, the Activity with Helix pomatia worked out at 98.7%; in the test on Canavalia ensiformis, 72.2%; in test [1], 39.1%; in the test on Prunus dulcis, 75.7%; in test [2], 109%; in test [3] it was 5.4%. Moreover, the Ki at Alpha-galactosidase came out at 40.8 µM.

For `O=C(NCCP(=O)(O)O)[C@@H]1C[C@H](O)[C@@H](CO)N1`, the Activity in the test with Helix pomatia was 93.7%; in the test with Canavalia ensiformis it was 83.9%; in test [1] it was 97.1%; in the test with Prunus dulcis, 83.6%; in test [2], 55.8%; in test [3], 107%.
